As usually defined, the GI50 is the concentration at which growth is held to half of that of the control. As a reminder, the solubility is the dissolved amount per volume that the medium holds. Lower therefore signals little dissolved substance. The term IC50 denotes the concentration that gives 50% inhibition. Low readings indicate greater potency, high ones weaker potency.

The test system of series [1] is HL-60. The experiment in a line: cells. The note with it: Homo sapiens.
Description: Growth inhibition of human HL60 cells harboring wild-type FLT3 by CCK8 assay
The nature of series [2]: Solubility of the compound in distilled water kept in shaker for 1 hr. The class given is physicochemical.
Series [3] can be described thus: Solubility of the compound in phosphate buffered saline kept in shaker for 1 hr. The class given is physicochemical.
A short description of series [4]: Stability in human liver microsomes assessed as compound remaining after 30 mins. The class given is ADME, microsome. Particulars: read-out: Stability. For orientation: Liver microsomes are vesicles of endoplasmic reticulum, rich in cytochrome P450 enzymes.
Series [5] deals with K562. The experiment in a line: cells. Particulars: Homo sapiens.
Description: Growth inhibition of FLT3 null human K562 cells by CCK8 assay
Series [6] in a line: Stability in rat liver microsomes assessed as compound remaining after 30 mins. It is filed as ADME, microsome. The note with it: read-out: Stability.
Series [7] addresses T1, Receptor-type tyrosine-protein kinase FLT3 (Homo sapiens, UniProt P36888).
T1 sequence (P36888 whole entry): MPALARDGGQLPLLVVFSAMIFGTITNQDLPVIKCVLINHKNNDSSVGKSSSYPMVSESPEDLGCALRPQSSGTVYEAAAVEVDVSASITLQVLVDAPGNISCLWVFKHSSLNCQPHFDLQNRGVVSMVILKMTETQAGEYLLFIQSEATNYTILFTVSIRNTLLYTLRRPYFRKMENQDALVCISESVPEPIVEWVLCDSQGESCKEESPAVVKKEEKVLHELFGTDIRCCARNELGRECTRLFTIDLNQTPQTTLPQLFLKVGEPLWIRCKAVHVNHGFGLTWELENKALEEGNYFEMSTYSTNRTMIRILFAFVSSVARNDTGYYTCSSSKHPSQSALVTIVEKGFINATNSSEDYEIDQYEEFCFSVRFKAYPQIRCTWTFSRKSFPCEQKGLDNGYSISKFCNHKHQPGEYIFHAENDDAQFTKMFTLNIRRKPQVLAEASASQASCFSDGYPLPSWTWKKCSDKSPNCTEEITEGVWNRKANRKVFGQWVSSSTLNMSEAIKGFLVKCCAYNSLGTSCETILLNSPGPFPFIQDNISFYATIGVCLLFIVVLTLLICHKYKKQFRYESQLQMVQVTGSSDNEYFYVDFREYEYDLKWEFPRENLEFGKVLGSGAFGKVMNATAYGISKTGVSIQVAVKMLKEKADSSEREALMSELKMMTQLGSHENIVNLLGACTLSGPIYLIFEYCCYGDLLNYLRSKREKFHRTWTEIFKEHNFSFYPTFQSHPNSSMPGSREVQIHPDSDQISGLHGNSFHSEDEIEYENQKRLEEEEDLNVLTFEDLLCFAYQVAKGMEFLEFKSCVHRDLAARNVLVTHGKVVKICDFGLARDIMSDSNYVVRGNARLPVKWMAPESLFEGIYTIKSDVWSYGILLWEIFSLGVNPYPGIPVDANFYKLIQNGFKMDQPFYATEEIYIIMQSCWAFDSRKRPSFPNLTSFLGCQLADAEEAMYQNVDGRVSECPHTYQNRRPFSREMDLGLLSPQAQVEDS
The experiment in a line: biochemical. It is filed as cell-based.
Description: Inhibition of N-terminal GST-tagged recombinant human wild-type FLT3 (564 to end residues) expressed in baculovirus infected sf21 cells using Abltide as substrate in presence of [gamma33P]ATP after 10 mins by scintillation counting method

Series [8] deals with Receptor-type tyrosine-protein kinase FLT3 (Homo sapiens, UniProt P36888, D835Y). The experiment in a line: biochemical. The class given is cell-based.
Description: Inhibition of N-terminal GST-tagged recombinant human wild-type FLT3 (564 to end residues) D835Y mutant expressed in baculovirus infected sf21 cells using Abltide as substrate in presence of [gamma33P]ATP after 10 mins by scintillation counting method
Series [9] deals with MV4-11. The experiment in a line: cells. Particulars: Homo sapiens.
Description: Growth inhibition of human MV4-11 cells harboring FLT3-ITD mutant by XTT assay
In series [10] the test system is THP-1. The experiment in a line: cells. Particulars: Homo sapiens.
Description: Growth inhibition of human THP1 cells harboring wild-type FLT3 by XTT assay

≈ marks a conversion by molar mass, not a printed value.

On to `CC1=CC(=O)N(Nc2nc(-c3cccs3)nc3sc(C)c(C)c23)C1=O`, for which the 50% growth inhibitory concentration (GI50) in [1] is over 10000 nM; in [5], 102 nM. Besides, the solubility at 1 h in [2] is 1.28 µM (≈ 0.474 µg/mL); in series [3], 1.04 µM (≈ 0.385 µg/mL). Further, the results for the remaining at 0.5 h in [4] and in series [6] were 32.4% and 22.7%, respectively.
Turning to `CC1=CC(=O)N(Nc2nc(-c3cccs3)nc3sc(C)cc23)C1=O`, the values for the GI50 in series [1] and in [5] were over 10000 nM and 2570 nM, respectively. Also, the solubility at 1 h in [2] amounted to 5.84 µM (≈ 2.08 µg/mL); in [3], 0.36 µM (≈ 0.128 µg/mL). The figures for the remaining at 0.5 h in [4] and in [6] were 58.8% and 32.6%, respectively.
As to `CNCCOc1ccc(-c2sc3nc(-c4cccs4)nc(NN4C(=O)C=C(C)C4=O)c3c2C)cc1`, the IC50 in series [7] turned out to be 11.1 nM.
On to `CC1=CC(=O)N(Nc2nc(-c3ccc[nH]3)nc3sc(C)cc23)C1=O`, for which the IC50 in series [7] came to 135 nM; in [8], 117 nM. For the same compound, the solubility at 1 h in [2] was 10.1 µM (≈ 3.42 µg/mL); in [3], 0.59 µM (≈ 0.2 µg/mL). The remaining at 0.5 h in series [4] was found to be 40.4%; in series [6] it was 39.1%.
For `CC1=CC(=O)N(Nc2nc(-c3ccc(F)cc3)nc3sc(C)cc23)C1=O`, the values for the IC50 in series [7] and in series [8] were 274 nM and 266 nM, respectively. The solubility at 1 h in series [2] and in series [3] was under 0.14 µM each time. Besides, the remaining at 0.5 h in series [4] came out at 42.6%; in series [6], 8.58%.
As for `CC1=CC(=O)N(Nc2nc(-c3ccc[nH]3)nc3sc(C)c(C)c23)C1=O`, the GI50 in [1] was over 10000 nM; in series [5] it was 1100 nM; in [9] it was 452 nM; in [10], 339 nM. The IC50 in series [7] was found to be 79.3 nM; in series [8] it was 89.2 nM. Besides, the solubility at 1 h in series [2] is 0.87 µM (≈ 0.307 µg/mL); in [3], 0.16 µM (≈ 0.0565 µg/mL). Also, the remaining at 0.5 h in series [4] was found to be 37.1%; in [6] it was 39.7%.
Turning to `CC1=CC(=O)N(Nc2nc(-c3ccc(F)cc3)nc3sc(C)c(C)c23)C1=O`, the figures for the IC50 in series [7] and in series [8] were 211 nM and 172 nM, respectively. Besides, the solubility at 1 h in [2] and in series [3] was under 0.14 µM each time. The remaining at 0.5 h was 20.7% in [4] and 19.6% in series [6].
Regarding `CC1=CC(=O)N(Nc2nc(-c3ccco3)nc3sc(C)cc23)C1=O`, the concentration for half-maximal inhibition (IC50) in series [7] is 171 nM; in series [8], 129 nM. The solubility at 1 h was determined as 40.6 µM (≈ 13.8 µg/mL) in [2] and 28.5 µM (≈ 9.69 µg/mL) in [3]. Besides, the values for the remaining at 0.5 h in series [4] and in [6] were 35.1% and 34.8%, respectively.
With `CC1=CC(=O)N(Nc2nc(-c3nccs3)nc3sc(C)cc23)C1=O`, the GI50 is over 10000 nM in series [1], 1280 nM in series [5], 1350 nM in [9] and 961 nM in [10]. The IC50 turned out to be 33.4 nM in series [7] and 33.9 nM in series [8]. The figures for the solubility at 1 h in series [2] and in series [3] were 1.43 µM (≈ 0.511 µg/mL) and 2.8 µM (≈ 1 µg/mL), respectively. For the same compound, the remaining at 0.5 h in [4] is 27.5%; in series [6], 14.5%.
Regarding `CC1=CC(=O)N(Nc2nc(-c3ccco3)nc3sc(C)c(C)c23)C1=O`, the concentration for half-maximal inhibition (IC50) was found to be 100 nM in series [7] and 102 nM in series [8]. Further, the figures for the solubility at 1 h in series [2] and in [3] were 24.6 µM (≈ 8.73 µg/mL) and 12.4 µM (≈ 4.38 µg/mL), respectively. The values for the remaining at 0.5 h in series [4] and in [6] were 10.9% and 26.2%, respectively.
For `CC1=CC(=O)N(Nc2nc(-c3nccs3)nc3sc(C)c(C)c23)C1=O`, the GI50 was over 10000 nM in series [1], 532 nM in [5], 216 nM in series [9] and 141 nM in series [10]. Besides, the IC50 in [7] was found to be 16 nM; in series [8], 21.4 nM. In addition, the solubility at 1 h in [2] was found to be 25.3 µM (≈ 9.41 µg/mL); in [3], 36.8 µM (≈ 13.7 µg/mL). Also, the values for the remaining at 0.5 h in [4] and in series [6] were 45.7% and 17.7%, respectively.

These data come from ChEMBL document CHEMBL4000222, “Synthetic strategy for increasing solubility of potential FLT3 inhibitor thieno[2,3-d]pyrimidine derivatives through structural modifications at the C2 and C6 positions” (Bioorg Med Chem Lett, 2017).
